Data set [1] in a line: Effect of Ca+2 ions on hydrogel formation. Conditions: peptide final concentration 1.34% weight. It is filed as physicochemical. Also on record: key: Hydrogel formation (✓); * partial formation of hydrogel over hours. Here is the method: With the addition of Ca^+2 ions to the solution of the peptide the system may form a hydrogel. These hydrogels are obtained at peptide concentrations smaller and at pH values higher than those without the ions. […] It is possible that the Ca^+2 may also induce cross linking between strands in a mechanism similar to that of alginate hydrogel formation. The concentration of Ca^+2 ions in the hydrogel are a few times larger than in the body serum (2.5 mM). This is envisaged to yield a better environment for the bone forming osteoblast cells. In any event, the Ca^+2 provides an additional parameter to control the hydrogel rheological and stability properties.
Peptides, 2% (w/v) in the liquid state were dissolved in 0.05 M NaOH to yield 7.0<pH<7.5 solution.

The nature of data set [2]: Formation of hydrogels by additional peptides. It is filed as physicochemical. The conditions noted are these: 4% weight in 100 μl NaOH solution. The text has this: Additional peptides were studies in order to elucidate the role of termini Proline residue in hydrogel formation, to test the effect of peptide length and peptide termini protecting groups.
The test system of data set [3] is Sprague-Dawley rats. Put plainly: Antigenicity (immunity) test, single intramuscular administration of hydrogel. It is filed as in vivo, rat. The conditions noted are these: single i.m. hydrogel, 7.5 times maximum estimated human dose, 14 days. Here is the method:
Immunity tests were performed to determine the safety of the compositions of the present invention. […] The control group was injected with saline. Rats were scarified after 14 days, blood was withdrawn for future hematology and biochemistry tests.

Data set [4] has as its system Sprague-Dawley rats. Put plainly: In vivo toxicity, single subcutaneous administration of hydrogel.
Protocol: A control group was injected with saline. Rats were sacrificed after 14 days. Hematology and biochemistry blood tests were performed, the injected area was excised and examined as well as other internal organs.
Data set [5] relates to human stomach. The conditions noted are these: healthy volunteers, doses prescribed for osteoporosis and Pagets disease of bone; cited from earlier work.
Data set [6] relates to SaOS2 cells. Nature of the data set: Quantitative evaluation of SaOS2 growth on 2D hydrogels (LIVE/DEAD Viability/Cytotoxicity Kit). Conditions: 3% w/v hydrogel, vs uncoated wells. It is filed as cell-based. Here is the method:
On 2D hydrogels: Quantitative studies of cell proliferation were performed in 2D systems of PFD-13 (3% w/v) hydrogels that were formed with DMEM+bicarbonate at pH ˜7.0 in 96-wells plates.
The plates were sterilized by gamma irradiation (5000 rad). 50 μl of culture media were pipette on top of each hydrogel for conditioning. After 1 h at room temp, SaOS2 cells were seeded on top of the hydrogels. Single cell suspensions obtained after trypsinization which diluted to concentration of 1×10^5 cells/1 ml. 50 μl of this cell suspension was seeded on top of each hydrogel. Triplicates of none coated wells were seeded and served as control. After 1 h of incubation, medium was added to complete the volume to 200 μl in each well ([…] and 150 μl in the uncoated wells). Culture medium was exchanged twice a week. Viability of the cells was evaluated every week, over a month, using the LIVE/DEAD Viability/Cytotoxicity Kit (Molecular Probes, Invitrogen, France) following the manufacturer's instructions. […] Ethidium-III enters dead cells with damaged membranes and undergoes a 40-fold enhancement of fluorescence upon binding to their DNA, leading to a red fluorescent signal. The plates were measured in a plate reader (calcein: Ex=495 nm, Em=515 nm. ethidium: Ex=530 nm, Em=635 nm). After measuring the medium fluorescence, the gain was set constant for each probe. […]

Where [7] appears, read: single s.c. hydrogel, about 10 times clinically relevant amount.

Entries after “also recorded” stand apart in the source; their conditions may differ. Ends that are not written are not given here.

On to PEFEFEFEFEFEP [PFE-13, PE(FE)5P], for which the “Hydrogel formation upon the addition of CaCl2 sol.” value in data set [1] (Ca+2 final concentration 20 mM), in data set [1] (Ca+2 final concentration 27 mM) and in data set [1] (Ca+2 final concentration 33 mM) was “✓” throughout.

With “Pro-Asp-Phe-Asp (PDFD; printed: Pro-Asp-Phe-Asp)”, in data set [2] (NaOH conc. 0.03), the “Resultant pH” value is recorded as around 3 and the “Self supporting gel formation assigned +” value is given as “liquid”. In data set [2] (NaOH conc. 0.05), the “Resultant pH” value was around 4 and the “Self supporting gel formation assigned +” value is reported as “liquid”.

With “Ac-PDFDFDFDFDFDP-NH2 [Ac-Pro-Asp-(Phe-Asp)5-Pro-NH2]”, in data set [3], the “Appearance during the experiment” value is “appeared normal” and the Survival entry is given as “All rats survived”. Besides, the “Resultant pH” value in data set [2] (NaOH conc. 0.03) is around 6. In data set [2] (NaOH conc. 0.05), the “Resultant pH” value was above 7.5 and the “Self supporting gel formation assigned +” value is on record as “Viscous liquid”. For the same molecule, the “Levels of LDH” value in data set [4] (rats sacrificed after 7 days) is given as “slightly high levels”. For the same molecule, the “Levels of LDH” value in data set [4] (rats sacrificed after 14 days) was “normal”. Also, in data set [4] (setting [7]), the Behavior result is given as “no signs of abnormal behavior”, the “Body weight compared to control group” value is listed as “did not lose weight”, the Internal organs entry is recorded as “appeared normal” and the Survival result is listed as “All rats survived”.

Take `NCCCC(O)(P(=O)(O)O)P(=O)(O)O` [Alendronate, alendronate]: the Gastric injury entry in data set [5] was “cause erosions and ulcers in the human stomach”.

Take “(Phe-Asp)6 (chain 1 FDFDFDFDFDFD; chain 2 FDFDFDFDFDFD)”: the “Resultant pH” value in data set [2] (NaOH conc. 0.03) is listed as around 6; in data set [2] (NaOH conc. 0.05) it was around 7.

As for PDLDLDLDLDLDP [PLD-13, PD(LD)5P], the “Hydrogel formation upon the addition of CaCl2 sol.” value in data set [1] (Ca+2 final concentration 20 mM), in data set [1] (Ca+2 final concentration 27 mM) and in data set [1] (Ca+2 final concentration 33 mM) was “*” throughout.

“Pro-Asp-(Phe-Asp)6 (chain 1 PDFDFDFDFDFDFD; chain 2 PDFDFDFDFDFDFD)”: the “Resultant pH” value is recorded as around 6 in data set [2] (NaOH conc. 0.03) and around 7 in data set [2] (NaOH conc. 0.05). In data set [2] (NaOH conc. 0.05), the “Self supporting gel formation assigned +” value is on record as “after several hrs”.

Regarding PELELELELELEP [PLE-13, PE(LE)5P], the “Hydrogel formation upon the addition of CaCl2 sol.” value in data set [1] (Ca+2 final concentration 20 mM), in data set [1] (Ca+2 final concentration 27 mM) and in data set [1] (Ca+2 final concentration 33 mM) was “✓” throughout.

As to PDFDFDFDFDFDP [PFD-13, PD(FD)5P], in data set [6], the “Cytotoxicity (EthD-III staining)” value was “not significant; also recorded: non toxic to the cells”. The “Hydrogel formation upon the addition of CaCl2 sol.” value in data set [1] (Ca+2 final concentration 27 mM) and in data set [1] (Ca+2 final concentration 33 mM) was “✓” in each case.

(Values after patent US9457056B2, “Peptides comprising alternating hydrophobic and anionic amino acids for treatment of osteoporosis” (Ben-Gurion University of the Negev Research and Development …, priority 2007, dated 2016).)
